Where two headings read alike, the source gives them in different places.
Tests used:
Assay type in all cases: in vivo
[1] = tested on: Mycosphaerella graminicola; Anamorph: Septoria tritici; assay: Leaf Blotch of Wheat (SEPTTR) disease control; settings: for pest or weed control at 100 ppm / pest or weed control at 121.5 g/ha: Zymoseptoria tritici
Method in brief: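 Wheat seedlings (Yuma, first leaf emerged) sprayed to run-off with compound in acetone/water with 110 ppm Triton X-100, or track-sprayed as EC with 0.1% Trycol 5941. Septoria tritici spores inoculated before or after treatment. Dew chambers, then 20 °C greenhouse. Percent disease control derived from severity (0–100%) relative to untreated plants.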

[2] = tested on: Puccinia triticina; Synonym: Puccinia recondite f. Sp. Tritici; assay: Wheat Brown Rust (PUCCRT) disease control; settings: for pest or weed control at 100 ppm / pest or weed control at 121.5 g/ha: Puccinia triticina, topical
Method in brief: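 Brown rust on first-leaf Yuma wheat: spore inoculation before or after spray application (acetone/Triton X-100 solution, or EC with Trycol in track spray), overnight 100% RH at 22 °C, disease developed at 24 °C. Severity scored 0–100% and converted to percent control against untreated.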

[3] = tested on: Uncinula necator; assay: Grape Powdery Mildew (UNCINE) disease control; settings: 1 Day Protectant; for pest or weed control at 100 ppm: Erysiphe necator, topical, 24 h, read-out: Disease Control UNCINE 1 DP
Method: Technical grades of materials were dissolved in acetone, which were then mixed with nine volumes of water containing 110 ppm Triton X-100. The fungicide solutions were applied onto wheat seedlings using an automated booth sprayer to run-off. All sprayed plants were allowed to air dry prior to further handling. All fungicides were evaluated using the aforementioned method for their activity vs. all target diseases. Wheat leaf blotch and brown rust activity were also evaluated using track spray applications, in which case the fungicides were formulated as EC formulations, containing 0.1% Trycol 5941 in the spray solutions. Wheat plants (variety Yuma) were grown from seed in a greenhouse in 50% mineral soil/50% soil-less Metro mix until the first leaf was fully emerged, with 7-10 seedlings per pot. These plants were inoculated with an aqueous spore suspension of Septoria tritici either prior to or after fungicide treatments. After inoculation the plants were kept in 100% relative humidity (one day in a dark dew chamber followed by two to three days in a lighted dew chamber at 20° C.) to permit spores to germinate and infect the leaf. The plants were then transferred to a greenhouse set at 20° C. for disease to develop. When disease symptoms were fully expressed on the 1st leaves of untreated plants, infection levels were assessed on a scale of 0 to 100 percent disease severity. Percent disease control was calculated using the ratio of disease severity on treated plants relative to untreated plants. Grape seedlings (variety Carignane) were grown in soil-less Metro mix, with one plant per pot, and used in the test when approximately one month old. Plants were inoculated 24 hr after fungicide treatment by shaking spores from infected leaves over test plants. Plants were maintained in a greenhouse set at 20° C. until disease was fully developed. Fungicide formulation, application and disease assessment on the sprayed leaves followed the procedures as described in the Example A.

[4] = tested on: Phakopsora pachyrhizi; assay: Asian Soybean Rust (PHAKPA) disease control; settings: for pest or weed control at 25 ppm: Phakopsora pachyrhizi, topical
Method: Technical grades of materials were dissolved in acetone, which were then mixed with nine volumes of water containing 0.011% Tween 20. The fungicide solutions were applied onto soybean seedlings using an automated booth sprayer to run-off. All sprayed plants were allowed to air dry prior to further handling.
Soybean plants (variety Williams 82) were grown in soil-less Metro mix, with one plant per pot. Two weeks old seedlings were used for testing. Plants were inoculated either 3 days prior to or 1 day after fungicide treatments. Plants were incubated for 24 h in a dark dew room at 22° C. and 100% RH then transferred to a growth room at 23° C. for disease to develop. Disease severity was assessed on the sprayed leaves.

[5] = 24 h, 1 Day Protectant, rate 100 ppm, read-out: SEPTTR 1 DP disease control
[6] = 24 h, 1 Day Protectant, rate 121.5 g/H, read-out: SEPTTR 1 DP disease control
[7] = 72 h, 3 Day Curative, rate 100 ppm, read-out: SEPTTR 3 DC disease control
[8] = 72 h, 3 Day Curative, rate 121.5 g/H, read-out: SEPTTR 3 DC disease control
[9] = 24 h, 1 Day Protectant, rate 100 ppm, read-out: PUCCRT 1 DP disease control
[10] = 24 h, 1 Day Protectant, rate 121.5 g/H, read-out: PUCCRT 1 DP disease control
[11] = 72 h, 3 Day Curative, rate 100 ppm, read-out: PUCCRT 3 DC disease control
[12] = 72 h, 3 Day Curative, rate 121.5 g/H, read-out: PUCCRT 3 DC disease control
[13] = 24 h, 1 Day Protectant, read-out: Disease Control PHAKPA 1DP
[14] = 72 h, 3 Day Curative, read-out: Disease Control PHAKPA 3DC
[15] = 1 Day Protectant, rate 121.5 g/H

Structure (SMILES)	pest or weed control at 100 ppm [1, 5]	pest or weed control at 121.5 g/ha [1, 6]	pest or weed control at 100 ppm [1, 7]	pest or weed control at 121.5 g/ha [1, 8]	pest or weed control at 100 ppm [2, 9]	pest or weed control at 121.5 g/ha [2, 10]	pest or weed control at 100 ppm [2, 11]	pest or weed control at 121.5 g/ha [2, 12]	pest or weed control at 100 ppm [3]	pest or weed control at 25 ppm [4, 13]	pest or weed control at 25 ppm [4, 14]	also measured
COc1ccnc(C(=O)N[C@H]2CCC[C@H](Cc3ccccc3)[C@@H](OCC(C)C)[C@H](C)OC2=O)c1OC(C)=O [Compound F70]	80 to 100%	80 to 100%	80 to 100%	80 to 100%	80 to 100%	80 to 100%	80 to 100%	80 to 100%	80 to 100%	80 to 100%	0 to 80%	
COCC[C@H]1CCC[C@H](NC(=O)c2nccc(OC)c2OC(C)=O)C(=O)O[C@@H](C)[C@@H]1Oc1ccccc1 [Compound F78]	80 to 100%	80 to 100%	80 to 100%	80 to 100%	80 to 100%	80 to 100%	80 to 100%	80 to 100%	0 to 80%	80 to 100%	80 to 100%	
COc1ccnc(C(=O)N[C@H]2CCC[C@H](CCBr)[C@@H](Oc3ccccc3)[C@H](C)OC2=O)c1OC(C)=O [Compound F80]	80 to 100%	80 to 100%	80 to 100%	80 to 100%	80 to 100%	80 to 100%	80 to 100%	80 to 100%	0 to 80%	80 to 100%	0 to 80%	
CC[C@H]1CCC[C@H](NC(=O)c2nccc(OC)c2OC(C)=O)C(=O)O[C@@H](C)[C@@H]1Oc1ccccc1 [Compound F81]	80 to 100%	80 to 100%	80 to 100%	80 to 100%	80 to 100%	80 to 100%	80 to 100%	80 to 100%	80 to 100%	80 to 100%	80 to 100%	
COc1ccnc(C(=O)N[C@H]2CCC[C@H](CC(F)F)[C@@H](Oc3ccccc3)[C@H](C)OC2=O)c1OC(C)=O [Compound F82]	80 to 100%	80 to 100%	80 to 100%	80 to 100%	80 to 100%	80 to 100%	80 to 100%	80 to 100%	0 to 80%	80 to 100%	80 to 100%	
C=C[C@H]1CCC[C@H](NC(=O)c2nccc(OC)c2OC(C)=O)C(=O)O[C@@H](C)[C@@H]1Oc1ccccc1 [Compound F86]		80 to 100%		80 to 100%		80 to 100%		80 to 100%	80 to 100%	80 to 100%	0 to 80%	
CCCO[C@@H]1[C@@H](CCC(C)C)CCC[C@H](NC(=O)c2nccc(OC)c2OCOC(C)=O)C(=O)O[C@H]1C [Compound F92]	80 to 100%	80 to 100%	80 to 100%	80 to 100%	80 to 100%	80 to 100%	80 to 100%	80 to 100%	80 to 100%	80 to 100%	80 to 100%	
COc1ccnc(C(=O)N[C@H]2CCC[C@H](Cc3ccc(F)cc3)[C@@H](OCC3CC3)[C@H](C)OC2=O)c1OCOC(C)=O [Compound F96]	80 to 100%	80 to 100%	80 to 100%	80 to 100%	80 to 100%	80 to 100%	80 to 100%		80 to 100%	80 to 100%		PUCCRT 3 DC disease control ([2]; 3 Day Curative, rate 121.5 g/H): B (More than 0-Less than 80); Disease Control PHAKPA 3DC ([4]; 25 ppm, 3 Day Curative): B (More than 0-Less than 80)
COc1ccnc(C(=O)N[C@H]2CCC[C@H](Cc3ccc(F)cc3)[C@@H](OCC3CC3)[C@H](C)OC2=O)c1OCOC(C)=O [Compound F98]												SEPTTR 1 DP disease control ([1]; 1 Day Protectant, rate 100 ppm): A (80-100); SEPTTR 1 DP disease control [1, 15]: A (80-100); SEPTTR 3 DC disease control ([1]; 3 Day Curative, rate 100 ppm): A (80-100); SEPTTR 3 DC disease control ([1]; 3 Day Curative, rate 121.5 g/H): A (80-100); PUCCRT 1 DP disease control ([2]; 1 Day Protectant, rate 100 ppm): A (80-100); PUCCRT 1 DP disease control [2, 15]: A (80-100); PUCCRT 3 DC disease control ([2]; 3 Day Curative, rate 100 ppm): A (80-100); PUCCRT 3 DC disease control ([2]; 3 Day Curative, rate 121.5 g/H): A (80-100); Disease Control UNCINE 1 DP ([3]; 100 ppm): A (80-100); Disease Control PHAKPA 1DP ([4]; 25 ppm, 1 Day Protectant): A (80-100); Disease Control PHAKPA 3DC ([4]; 25 ppm, 3 Day Curative): A (80-100)
CCCO[C@@H]1[C@@H](Cc2ccc(F)cc2)CCC[C@H](NC(=O)c2nccc(OC)c2OCOC(C)=O)C(=O)O[C@H]1C [Compound F101]	80 to 100%	80 to 100%	80 to 100%	80 to 100%	80 to 100%	80 to 100%	80 to 100%	80 to 100%	80 to 100%	80 to 100%	0 to 80%	
COc1ccnc(C(=O)N[C@H]2CCC[C@H](Cc3ccccc3)[C@@H](OCC(C)C)[C@H](C)OC2=O)c1OCOC(C)=O [Compound F106]	80 to 100%	80 to 100%	80 to 100%	80 to 100%	80 to 100%	80 to 100%	80 to 100%	80 to 100%	80 to 100%	80 to 100%	0 to 80%	
COc1ccnc(C(=O)N[C@H]2CCC[C@H](Cc3ccccc3)[C@@H](OCC3CC3)[C@H](C)OC2=O)c1OCOC(C)=O [Compound F107]	80 to 100%	80 to 100%	80 to 100%	80 to 100%	80 to 100%	80 to 100%	80 to 100%	80 to 100%	0 to 80%	80 to 100%	80 to 100%	
CCCO[C@@H]1[C@@H](Cc2ccccc2)CCC[C@H](NC(=O)c2nccc(OC)c2OCOC(C)=O)C(=O)O[C@H]1C [Compound F109]	80 to 100%	80 to 100%	80 to 100%	80 to 100%	80 to 100%	80 to 100%	80 to 100%	80 to 100%	80 to 100%	80 to 100%	0 to 80%	

Source: patent US9265253B2, “Use of macrocyclic picolinamides as fungicides” (DOW AGROSCIENCES LLC, priority 2013, dated 2016)
